The subject of one assay is MiaPaCa2 cells. The assay can be described thus: cell-based HT lactate assay, colorimetric/fluorometric detection (inhibition of lactate production). The note with it: class symbols, 0 to 3 pluses. As for the experimental part: Cell-based HT Lactate assay is a miniaturized Biovision Lactate Colorimetric/Fluorometric Assay Kit (Cat #K607-100). The assay is roughly a 3.5 hour assay run in a 1536 plate format. Cell number optimization should be run for each cell line to achieve an optimal number in which lactate production equals roughly 90% of the standard curve range. Cell number per well optimization has been performed with the following cell lines: MiaPaCa2—500 cells/well, SNU398—500 cells/well, and P493—500 cells/well.
The lactate activity in Table 8 is represented by 0 to 3 pluses as follows: +++<1 μM; ++1-10 μM; +10-57 μM; and −>57 μM.

The target in the next assay is Human LDHA (Homo sapiens (Human), UniProt P00338). The assay is described as follows: human LDHA primary biochemical assay (resazurin/diaphorase coupled, fluorescence). The note with it: LDHA inhibitory activity. The source says:
Test compounds were placed in a Greiner Bio-One (Monroe, N.C.) 1536-well black solid bottom assay plate. 200 millimolar (mM) Tris HCl, pH 7.4, 100 micromolar […] EDTA and 0.01% TWEEN-20™, final concentration, was used as the assay buffer. The LDHA reagent was 2 nanomolar (nM) Human LDHA (Meridian Life Science, Inc., Memphis, Tenn.), final concentration, in assay buffer.
For orientation: Alamar Blue is a resazurin reagent that responds to reducing activity.

[1] abbreviates: assay of Example 1, activity level classes.
The mark [2] stands for this setting: activity level based on IC50 (Table 7).

A value given as a limit tells only on which side of the number the result lay.

Results on 42 molecules are retold here after patent US10961200B2, “Small molecule inhibitors of lactate dehydrogenase and methods of use thereof” (THE UNITED STATES OF AMERICA, AS REPRESENTED BY THE …, priority 2014, dated 2021).

One may read the IC50 as the concentration at which inhibition is half-maximal.

On to `CC#Cc1cccc(-c2nn(-c3ncc(C(=O)OCC)s3)c(CC3CC3)c2Cc2ccc(S(N)(=O)=O)c(F)c2)c1` [Compound 269], for which the values for the IC50 in the assay with MiaPaCa2 cells and on Human LDHA (setting [1]) were < 1000 nM and 1000 to 57000 nM, respectively.
The corresponding values for `Cc1ccc(-c2cccc(-c3nn(-c4nc(C(=O)O)cs4)c(CC4CC4)c3Cc3ccc(S(N)(=O)=O)cc3)c2)cc1` [Compound 281] are < 1000 nM and < 100 nM.
The corresponding values for `Cc1ccc(-c2cc(-c3nn(-c4nc(C(=O)O)cs4)c(CC4CC4)c3Cc3ccc(S(N)(=O)=O)cc3)ccc2F)cc1` [Compound 284] are < 1000 nM and < 100 nM.
Taken in the same sequence, the figures for `Cc1ccc(-c2cc(-c3nn(-c4nc(C(=O)O)cs4)c(CC4CC4)c3Cc3ccc(S(N)(=O)=O)c(F)c3)ccc2F)cc1` [Compound 288] were < 1000 nM and < 100 nM.
On to `NS(=O)(=O)c1ccc(Cc2c(-c3cccc(-c4ccccc4)c3)nn(-c3nc(C(=O)O)cs3)c2CC2CC2)c(F)c1` [Compound 290], for which the IC50 in the assay with MiaPaCa2 cells is < 1000 nM; at Human LDHA (setting [1]), < 100 nM.
The corresponding values for `N[S+](=O)([O-])c1ccc(Cc2c(-c3ccc(F)c(-c4ccc(C5CC5)cc4)c3)nn(-c3nc(C(=O)O)cs3)c2CC2CC2)cc1` [Compound 294] are < 1000 nM and < 100 nM.
Taken in the same sequence, the figures for `NS(=O)(=O)c1ccc(Cc2c(-c3ccc(F)c(Br)c3)nn(-c3nc(C(=O)O)cs3)c2CC2CC2)cc1` [Compound 296] were 1000 to 10000 nM and < 100 nM.
Consider `NS(=O)(=O)c1ccc(Cc2c(-c3cccc(-c4ccccc4)c3)nn(-c3nc(C(=O)O)cs3)c2CC(F)(F)F)cc1` [Compound 304], for which the IC50 with MiaPaCa2 cells lay in the range of 10000 to 57000 nM; against Human LDHA (setting [1]) it was 100 to 1000 nM.
Consider `CC(C)c1ccc(-c2cc(-c3nn(-c4nc(C(=O)O)cs4)c(CC4CC4)c3Cc3ccc([S+](N)(=O)[O-])cc3)ccc2F)cc1` [Compound 306], for which the IC50 in the assay on MiaPaCa2 cells is < 1000 nM; on Human LDHA (setting [1]), < 100 nM.
The corresponding values for `Cc1ccc(-c2cc(-c3nn(-c4nc(C(=O)O)cs4)c(CC4CC4)c3Cc3ccc(S(N)(=O)=O)cc3F)ccc2F)cc1` [Compound 307] are < 1000 nM and < 100 nM.
The corresponding values for `N[S+](=O)([O-])c1ccc(Cc2c(-c3ccc(F)c(-c4ccc(F)cc4)c3)nn(-c3nc(C(=O)O)cs3)c2CC2CC2)c(F)c1` [Compound 309] are < 1000 nM and < 100 nM.
Taken in the same sequence, the figures for `N[S+](=O)([O-])c1ccc(Cc2c(-c3ccc(F)c(-c4ccc(F)cc4)c3)nn(-c3nc(C(=O)O)cs3)c2CC2CC2)cc1` [Compound 310] were < 1000 nM and < 100 nM.
For `N[S+](=O)([O-])c1ccc(Cc2c(-c3ccc(F)c(-c4cccc(F)c4)c3)nn(-c3nc(C(=O)O)cs3)c2CC2CC2)c(F)c1` [Compound 324], the figures for the IC50 with MiaPaCa2 cells and on Human LDHA (setting [1]) were < 1000 nM and < 100 nM, respectively.
Taken in the same sequence, the figures for `N[S+](=O)([O-])c1ccc(Cc2c(-c3ccc(F)c(-c4cccc(F)c4)c3)nn(-c3nc(C(=O)O)cs3)c2CC2CC2)cc1F` [Compound 326] were < 1000 nM and < 100 nM.
Taken in the same sequence, the figures for `COc1cccc(-c2cc(-c3c(Cc4ccc(S(N)(=O)=O)cc4F)c(CC4CC4)nn3-c3nc(C(=O)O)cs3)ccc2F)c1` [Compound 327] were 10000 to 57000 nM and 1000 to 57000 nM.
The corresponding values for `COc1cccc(-c2cc(-c3nn(-c4nc(C(=O)O)cs4)c(CC4CC4)c3Cc3ccc(S(N)(=O)=O)c(F)c3)ccc2F)c1` [Compound 330] are < 1000 nM and < 100 nM.
As to `NS(=O)(=O)c1ccc(Cc2c(-c3cccc(-c4ccccc4)c3)nn(-c3nc(C(=O)O)cs3)c2CC2CC2)cc1F` [Compound 331], the IC50 was < 1000 nM with MiaPaCa2 cells and < 100 nM at Human LDHA (setting [1]).
The corresponding values for `Cc1ccc(-c2cccc(-c3nn(-c4nc(C(=O)O)cs4)c(CC4CC4)c3Cc3ccc(S(N)(=O)=O)c(F)c3)c2)cc1` [Compound 332] are < 1000 nM and < 100 nM.
As to `NS(=O)(=O)c1ccc(Cc2c(-c3cccc(OC4CCCC4)c3)nn(-c3nc(C(=O)O)cs3)c2CC2CC2)cc1F` [Compound 336], the IC50 in the assay on MiaPaCa2 cells is < 1000 nM; against Human LDHA (setting [1]) it was < 100 nM.
The corresponding values for `NS(=O)(=O)c1ccc(Cc2c(-c3cccc(OC4CCCC4)c3)nn(-c3nc(C(=O)O)cs3)c2CC2CC2)cc1` [Compound 337] are < 1000 nM and < 100 nM.
As to `N[S+](=O)([O-])c1ccc(Cc2c(-c3cccc(OC4CCCC4)c3)nn(-c3nc(C(=O)O)cs3)c2CC2CC2)c(F)c1` [Compound 338], the IC50 in the assay with MiaPaCa2 cells (Homo sapiens, MIA PaCa-2) is < 1000 nM; against Human LDHA (setting [2]), < 100 nM.
Turning to `NS(=O)(=O)c1ccc(Cc2c(-c3cccc(-c4cccc(F)c4)c3)nn(-c3nc(C(=O)O)cs3)c2CC2CC2)cc1F` [Compound 365], the IC50 in the assay on MiaPaCa2 cells is < 1000 nM; on Human LDHA (setting [2]), < 100 nM.
Taken in the same sequence, the figures for `N[S+](=O)([O-])c1ccc(Cc2c(-c3ccc(F)c(-c4ccccc4F)c3)nn(-c3nc(C(=O)O)cs3)c2CC2CC2)cc1F` [Compound 366] were < 1000 nM and < 100 nM.
The corresponding values for `N[S+](=O)([O-])c1ccc(Cc2c(-c3ccc(F)c(-c4ccccc4)c3)nn(-c3nc(C(=O)O)cs3)c2CC2CC2)cc1F` [Compound 367] are < 1000 nM and < 100 nM.
Regarding `NS(=O)(=O)c1cccc(Cc2c(-c3ccc(F)c(-c4cccc(F)c4)c3)nn(-c3nc(C(=O)O)cs3)c2CC2CC2)c1` [Compound 368], the IC50 lay within 10000 to 57000 nM in the assay with MiaPaCa2 cells and 1000 to 57000 nM against Human LDHA (setting [2]).
Consider `N[S+](=O)([O-])c1ccc(Cc2c(-c3ccc(F)c(C4=CCNCC4)c3)nn(-c3nc(C(=O)O)cs3)c2CC2CC2)cc1F` [Compound 369], for which the 50% inhibitory concentration (IC50) with MiaPaCa2 cells was 10000 to 57000 nM; on Human LDHA (setting [2]) it was < 100 nM.
Taken in the same sequence, the figures for `N[S+](=O)([O-])c1ccc(Cc2c(-c3cccc(-c4cccc(F)c4)c3)nn(-c3nc(C(=O)O)cs3)c2CC2CC2)cc1` [Compound 370] were 1000 to 10000 nM and < 100 nM.
The corresponding values for `N=[S+](N)([O-])c1ccc(Cc2c(-c3ccc(F)c(-c4cccc(F)c4)c3)nn(-c3nc(C(=O)O)cs3)c2CC2CC2)cc1F` (stereo not drawn) [Compound 371] are < 1000 nM and < 100 nM.
The corresponding values for `NS(=O)(=O)c1ccc(Cc2c(-c3cccc(C4CCCC4)c3)nn(-c3nc(C(=O)O)cs3)c2CC2CC2)cc1` [Compound 372] are 1000 to 10000 nM and < 100 nM.
Regarding `NS(=O)(=O)c1ccc(Cc2c(-c3ccc(F)c(C4CCCC4)c3)nn(-c3nc(C(=O)O)cs3)c2CC2CC2)cc1F` [Compound 373], the results for the IC50 in the assay on MiaPaCa2 cells and on Human LDHA (setting [2]) were < 1000 nM and < 100 nM, respectively.
Taken in the same sequence, the figures for `N[S+](=O)([O-])c1ccc(Cc2c(-c3ccc(F)c(C4CCCCC4)c3)nn(-c3nc(C(=O)O)cs3)c2CC2CC2)cc1F` [Compound 374] were < 1000 nM and < 100 nM.
The corresponding values for `NS(=O)(=O)c1ccc(Cc2c(-c3ccc(F)c(C4C5CC6CC(C5)CC4C6)c3)nn(-c3nc(C(=O)O)cs3)c2CC2CC2)cc1F` (stereo not drawn) [Compound 375] are 1000 to 10000 nM and 100 to 1000 nM.
The corresponding values for `N[S+](=O)([O-])c1ccc(Cc2c(-c3cccc(S(F)(F)(F)(F)F)c3)nn(-c3nc(C(=O)O)cs3)c2CC2CC2)cc1F` [Compound 376] are < 1000 nM and < 100 nM.
Consider `CCOC(=O)c1csc(-n2nc(-c3ccc(F)c(-c4cccc(F)c4)c3)c(Cc3ccc([S+](N)(=O)[O-])c(F)c3)c2CC2CC2)n1` [Compound 377], for which the IC50 with MiaPaCa2 cells and on Human LDHA (setting [2]) was > 57000 nM throughout.
In the case of `NS(=O)(=O)c1ccc(Cc2c(-c3ccc(F)c(CC4CC4)c3)nn(-c3nc(C(=O)O)cs3)c2CC2CC2)cc1F` [Compound 378], the IC50 in the assay with MiaPaCa2 cells is < 1000 nM; at Human LDHA (setting [2]), < 100 nM.
Taken in the same sequence, the figures for `N[S+](=O)([O-])c1ccc(Cc2c(-c3ccc(F)c(C4=COCCC4)c3)nn(-c3nc(C(=O)O)cs3)c2CC2CC2)cc1F` [Compound 379] were < 1000 nM and < 100 nM.
Consider `N[S+](=O)([O-])c1ccc(Cc2c(-c3ccc(F)c(C4=CCN(C(=O)C5CC5)CC4)c3)nn(-c3nc(C(=O)O)cs3)c2CC2CC2)cc1F` [Compound 380], for which the IC50 in the assay on MiaPaCa2 cells is 1000 to 10000 nM; at Human LDHA (setting [2]), < 100 nM.
With `CCC(C)(C)c1cc(-c2nn(-c3nc(C(=O)O)cs3)c(CC3CC3)c2Cc2ccc(S(N)(=O)=O)c(F)c2)ccc1F` [Compound 381], the IC50 with MiaPaCa2 cells is < 1000 nM; against Human LDHA (setting [2]), < 100 nM.
The corresponding values for `N[S+](=O)([O-])c1ccc(Cc2c(-c3ccc(F)c(C4CCC4)c3)nn(-c3nc(C(=O)O)cs3)c2CC2CC2)cc1F` [Compound 382] are < 1000 nM and < 100 nM.
Taken in the same sequence, the figures for `CC(C)c1cc(-c2nn(-c3nc(C(=O)O)cs3)c(CC3CC3)c2Cc2ccc(S(N)(=O)=O)c(F)c2)ccc1F` [Compound 383] were < 1000 nM and < 100 nM.
Regarding `CC(c1ccccc1)c1cc(-c2nn(-c3nc(C(=O)O)cs3)c(CC3CC3)c2Cc2ccc(S(N)(=O)=O)c(F)c2)ccc1F` (stereo not drawn) [Compound 384], the IC50 in the assay with MiaPaCa2 cells is < 1000 nM; at Human LDHA (setting [2]), < 100 nM.
The corresponding values for `N[S+](=O)([O-])c1ccc(Cc2c(-c3ccc(F)c(C4CC4)c3)nn(-c3nc(C(=O)O)cs3)c2CC2CC2)cc1F` [Compound 385] are < 1000 nM and < 100 nM.
